In patent publication US10172884B2, “Dialysis solutions comprising organic esters of phosphoric acid” (Fresenius Medical Care Deutschland GmbH, priority 2015, dated 2019):

Test: modified rapid controlled precipitation method (controlled degassing of CO2 until precipitation)
Assay type: physicochemical
Excerpt: The “Rapid-Controlled Precipitation Method” or the “Critical pH Method” can be used for determining the stability of the dialysis solution such as is described in F. Hui et al: Journal European of Water Quality (Journal European d'Hydrologie) T.33 Fasc. 1 (2002).
The results described within the framework of this disclosure were obtained by a modified rapid controlled precipitation method. The experiment setup comprises six 3-neck flasks (Carousel-6 from Radleys) which are open toward the top to ensure a uniform degassing of CO2 from the solution. Furthermore, this setup allows an in-line measurement of e.g. the pH and the conductivity as well as the simultaneous heating of the flasks.
The basic principle of the method used comprises the pH of the mixed solution or of the dialysis solution being slowly raised by controlled degassing of CO2 until the dialysis solution reaches a metastable state and ultimately precipitates.
A pH measurement, a particle count or a turbidity measurement can be used, for example, as methods for detecting the precipitation. […] The measured curves which can be obtained using these methods are compared in FIG. 3. […]
The pHmax and the precipitation products of the different solutions are compiled in Table 4 shown in the following. The values were all determined at 40° C. using the “rapid degassing” method. […]

For O=P(O)(O)OCC(O)CO (centres unmarked) [glycerol orthophosphate], the Precipitation product (40° C., rapid degassing method) was “no phosphates low in solubility are formed” and the “stability of the solution (pHmax and tG values)” value (T=40° C., result in words, FIGS. 10, 12, 13, 15) was “almost the same stabilizing effect as the addition of 0.1 mmol/L orthophosphate”.
